Measurements reported in US6967196B1, “Sulfonamide compounds and uses thereof” (Bristol-Myers Squibb Company, priority 1999, dated 2005).
Counter-ions that a name gives are not always drawn. Like-named read-outs stand apart in the source and are kept apart here. One block for each compound: values may come before it.

Tested on: amyloid β production in transfected H4 (human neuroglioma) cells stably expressing APP constructs
Test: In vitro cell-based assay of inhibitors of amyloid β production (ELISA)
Settings: amyloid β in medium by ELISA
Outline: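 Cells expressing wild-type or variant APP were plated ≥6 h before medium was replaced with compound-containing medium (initial screen 10-100 μM) and incubated ~16 h. Secreted Aβ in medium was quantified by sandwich ELISA (C-terminal-specific mouse monoclonal capture, N-terminal rabbit polyclonal detection) against an Aβ standard curve.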

[1] = transfected H4 cells stably expressing APP constructs, approximately 16 hours incubation, read-out: ACTIVITY (IC50, inhibition of amyloid β production)
[2] = Table B, transfected H4 cells stably expressing APP, approximately 16 hours incubation, read-out: ACTIVITY (inhibitory concentration IC50, inhibition of amyloid β production)
[3] = transfected H4 cells stably expressing APP, approx. 16 h incubation, read-out: ACTIVITY (IC50, inhibition of amyloid β production)
[4] = transfected H4 cells stably expressing APP, approximately 16 hours incubation, read-out: ACTIVITY (IC50, inhibition of amyloid β production)
[5] = Homo sapiens, 16 h, transfected H4 cells stably expressing APP constructs, approximately 16 hours incubation, read-out: ACTIVITY (IC50, inhibition of amyloid β production)
[6] = Homo sapiens, 16 h, transfected H4 cells expressing APP, approximately 16 hours incubation, read-out: ACTIVITY (IC50, inhibition of amyloid β production)
[7] = Homo sapiens, 16 h, transfected H4 cells stably expressing APP, approximately 16 hours incubation, read-out: ACTIVITY (IC50, inhibition of amyloid β production)
[8] = transfected H4 cells stably expressing APP, approximately 16 hours incubation, Table B, read-out: ACTIVITY (IC50, inhibition of amyloid β production)

Compound: CCSCCC[C@@H](C)N(c1cc(Cl)ccc1CO)S(=O)(=O)c1ccc(Cl)cc1 [Example 1227, 4-chloro-N-[5-chloro-2-(hydroxymethyl)phenyl]-N-[1(R)-methyl-(4-ethylthio)butyl]benzenesulfonamide]
IC50 [1]: ≤ 25 nM

IC50 [2]: ≤ 25 nM
Compound: C[C@H](CCCC(=O)O)N(c1cc(Cl)ccc1Cl)S(=O)(=O)c1ccc(Cl)cc1 [Example 36, (5R)-5-[(2,5-dichlorophenyl][(4-chlorophenyl)sulfonyl]-amino]hexanoic Acid]

Compound: C[C@H](c1ccccc1COC(=O)NCc1ccco1)N(c1cc(F)ccc1F)S(=O)(=O)c1ccc(Cl)cc1 [Example 667, 2-((1R)-1-{[(4-chlorophenyl)sulfonyl]-2,5-difluoroanilino}ethyl)benzyl 2-furylmethylcarbamate]
IC50 [3]: 100 to 500 nM

IC50 [4]: > 500 nM
Compound: 2-[2-(1-{[(4-chlorophenyl)sulfonyl]-2,5-difluoroanilino}ethyl)phenoxy]-N-methylacetamide [Example 1064]

IC50 [5]: 100 to 500 nM
Compound: C[C@H](CCCS(=O)(=O)O)N(c1cc(Cl)ccc1CO)S(=O)(=O)c1ccc(Cl)cc1 [Example 1231, (4R)-4-[N-[5-chloro-2-(hydroxymethyl)phenyl][(4-chlorophenyl)sulfonyl]amino]pentylsulfonic acid]

IC50 [5]: > 10000 nM
Compound: CS(=O)(=O)c1ccc(N(Cc2ccccc2OCCCN2CCCCC2)S(=O)(=O)c2ccc(Cl)cc2)cc1 [Example 1094, 4-chloro-N-[4-(methylsulfonyl)phenyl]-N-{2-[3-(1-piperidinyl)propoxy]benzyl}benzenesulfonamide hydrochloride]

Compound: C[C@H](COC(=O)N(CCCn1ccnc1)CC1CC1)N(c1cc(Cl)ccc1CO)S(=O)(=O)c1ccc(Cl)cc1 [Example 1251, 4-Chloro-N-[5-chloro-2-(hydroxymethyl)phenyl]-N-[2-[[[N′-[3-(1H-imidazol-1-yl)propyl]-N′-cyclopropylmethylamino]carbonyl]oxy]-(R)-1-methylethyl]benzenesulfonamide]
IC50 [1]: ≤ 25 nM

IC50 [2]: ≤ 25 nM
Compound: C[C@H](CCCS(=O)(=O)Cl)N(c1cc(Cl)ccc1Cl)S(=O)(=O)c1ccc(Cl)cc1 [Example 18]

IC50 [6]: > 500 nM
Compound: CC1CCCCN1CCCNC(=O)[C@@H](C)N(c1cc(Cl)ccc1F)S(=O)(=O)c1ccc(Cl)cc1 (some centres unmarked) [Example 1340]

IC50 [6]: 100 to 500 nM
Compound: C[C@H](C(=O)NC(C)(C)CO)N(c1cc(Cl)ccc1F)S(=O)(=O)c1ccc(Cl)cc1 [Example 1344]

IC50 (Homo sapiens, 16 h, transfected H4 cells stably expressing APP, approx. 16 h incubation, read-out: ACTIVITY (IC50, inhibition of amyloid β production)): 100 to 500 nM
Compound: O=C(c1ccc(F)c(F)c1F)N1CCCCC1CCOc1ccccc1CN(c1cc(F)ccc1F)S(=O)(=O)c1ccc(Cl)cc1 (centres unmarked) [Example 797, 4-chloro-N-(2,5-difluorophenyl)-N-(2-{2-[1-(2,3,4-trifluorobenzoyl)-2-piperidinyl]ethoxy}benzyl)benzenesulfonamide]

Compound: C[C@H](CCN1CCC(S(C)(=O)=O)CC1)N(c1cc(Cl)ccc1Cl)S(=O)(=O)c1ccc(Cl)cc1 [Example 1146, 4-chloro-N-(2,5-dichlorophenyl)-N-[3-[(4-methylsulfonyl)-1-piperidinyl]-1(R)-methylpropyl]benzenesulfonamide]
IC50 [1]: 100 to 500 nM

IC50 [7]: > 500 nM
Compound: C[C@H](c1ccccc1CCCn1ccnc1)N(c1cc(F)ccc1F)S(=O)(=O)c1ccc(Cl)cc1 [Example 1056, 4-chloro-N-(2,5-difluorophenyl)-N-((1R)-1-{2-[3-(1H-imidazol-1-yl)propyl]phenyl}ethyl)benzenesulfonamide hydrochloride]

IC50 [4]: 100 to 500 nM
Compound: N-{3-[2-(1-{[(4-chlorophenyl)sulfonyl]-2,5-difluoroanilino}ethyl)phenoxy]propyl}-2-naphthamide [Example 808]

Compound: COC(=O)[C@H](CC(C)C)NC(=O)CCC[C@@H](C)N(c1cc(Cl)ccc1F)S(=O)(=O)c1ccc(Cl)cc1 [Example 541]
IC50 [3]: 100 to 500 nM

Compound: O=S(=O)(c1ccc(Cl)cc1)N(Cc1ccccc1OCCCNC1CC1)c1ccccc1 [Example 979, 4-chloro-N-{2-[3-(cyclopropylamino)propoxy]benzyl}-N-phenylbenzenesulfonamide hydrochloride]
IC50 [7]: > 500 nM

Compound: O=S(=O)(c1ccc(Cl)cc1)N(Cc1ccccc1OCCCN1CCC(Cc2ccccc2)CC1)c1ccccc1 [Example 290, N-{2-[3-(4-benzyl-1-piperidinyl)propoxy]benzyl}-4-chloro-N-phenylbenzenesulfonamide Hydrochloride]
IC50 [8]: 25 to 50 nM

IC50 [3]: 100 to 500 nM
Compound: N-{3-[2-(1-{[(4-chlorophenyl)sulfonyl]-2,5-difluoroanilino}ethyl)phenoxy]propyl}-2,3,4,5-tetrafluoro-N-methylbenzamide [Example 778]

IC50 (Homo sapiens, 16 h, transfected H4 cells stably expressing APP, approximately 16 hours incubation, Table B, read-out: ACTIVITY (IC50, inhibition of amyloid β production)): 50 to 100 nM
Compound: CC(c1ccccc1OCCCN(C)C(=O)C12CCC(C)(C(=O)O1)C2(C)C)N(c1cc(F)ccc1F)S(=O)(=O)c1ccc(Cl)cc1 (centres unmarked) [Example 387, N-{3-[2-(1-{[(4-chlorophenyl)sulfonyl]-2,5-difluoroanilino}ethyl)phenoxy]propyl}-N,4,7,7-tetramethyl-3-oxo-2-oxabicyclo[2.2.1]heptane-1-carboxamide]

IC50 [5]: > 10000 nM
Compound: CC(C)(O)C#Cc1ccccc1CN(c1ccccc1)S(=O)(=O)c1ccc(Cl)cc1 [Example 1086, 4-chloro-N-[2-(3-hydroxy-3-methyl-1-butynyl)benzyl]-N-phenylbenzenesulfonamide]

IC50 [7]: > 500 nM
Compound: CC(C)(C)OC(=O)n1c(-c2ccccc2OCCCN2CCCCC2)cc2ccccc21 [Example 1021, tert-butyl 2-{2-[3-(1-piperidinyl)propoxy]phenyl}-1H-indole-1-carboxylate trifluoroacetate]

IC50 [7]: 100 to 500 nM
Compound: O=S(=O)(c1ccc(Cl)cc1)N(Cc1ccccc1OCCCN1CCCCC1)CC1CCCC1 [Example 848, 4-chloro-N-(cyclopentylmethyl)-N-{2-[3-(1-piperidinyl)propoxy]benzyl}benzenesulfonamide hydrochloride]

Compound: CC[S+]([O-])CCC[C@@H](C)N(c1cc(Cl)ccc1F)S(=O)(=O)c1ccc(Cl)cc1 (stereo partly drawn) [Example 1160, 4-chloro-N-(5-chloro-2-fluorophenyl)-N-[1(R)-methyl-(4-ethylsulfinyl)butyl]benzenesulfonamide]
IC50 [1]: ≤ 25 nM

IC50 [4]: > 500 nM
Compound: 3-[2-((1R)-1-{[(4-chlorophenyl)sulfonyl]-2,5-difluoroanilino}ethyl)-5-fluorophenyl]-1-propanesulfonic acid [Example 881]

IC50 [2]: 25 to 50 nM
Compound: C[C@H](CCS(=O)(=O)CC(=O)O)N(c1cc(Cl)ccc1Cl)S(=O)(=O)c1ccc(Cl)cc1 [Example 183, (6R)-6-[(2,5-dichlorophenyl)[(4-chlorophenyl)sulfonyl]amino]-3-thioheptanoic Acid, 3,3 Dioxide]

Compound: C[C@H](COC(=O)NCCCn1cnnn1)N(c1cc(Cl)ccc1Cl)S(=O)(=O)c1ccc(Cl)cc1 [Example 1248, 4-Chloro-N-(2,5-dichlorophenyl)-N-[2-[[N′-[3-(1H-tetrazol-1-yl)propylamino]carbonyl]oxy]-(R)-1-methylethyl]benzenesulfonamide]
IC50 [1]: ≤ 25 nM

IC50 [7]: > 500 nM
Compound: CSc1ccc(N(Cc2ccccc2OCCCN2CCCCC2)S(=O)(=O)c2ccc(Cl)cc2)cc1 [Example 1019, 4-chloro-N-[4-(methylsulfanyl)phenyl]-N-{2-[3-(1-piperidinyl)propoxy]benzyl}benzenesulfonamide hydrochloride]

IC50 [1]: 100 to 500 nM
Compound: COC(=O)C[S+]([O-])CC[C@@H](C)N(c1cc(Cl)ccc1Cl)S(=O)(=O)c1ccc(Cl)cc1 (stereo partly drawn) [Example 1193, methyl(6R)-6-[(2,5-dichlorophenyl)-[(4-chlorophenyl)sulfonyl]-amino]-3-thioheptanoic acid, 3-oxide]

IC50 [3]: 100 to 500 nM
Compound: 2,4,6-trichloro-N-{3-[2-(1-{[(4-chlorophenyl)sulfonyl]-2,5-difluoroanilino}ethyl)phenoxy]propyl}benzamide [Example 728]

Compound: CC(c1ccccc1OCCN(C)C(=O)C(F)(F)C(F)(F)C(F)(F)F)N(c1cc(F)ccc1F)S(=O)(=O)c1ccc(Cl)cc1 (centres unmarked) [Example 796, N-{2-[2-(1-{[(4-chlorophenyl)sulfonyl]-2,5-difluoroanilino}ethyl)phenoxy]ethyl}-2,2,3,3,4,4,4-heptafluoro-N-methylbutanamide]
IC50 [3]: 100 to 500 nM

IC50 [8]: 100 to 500 nM
Compound: COC(=O)CSCCc1cc(F)ccc1[C@@H](C)N(c1cc(F)ccc1F)S(=O)(=O)c1ccc(Cl)cc1 [Example 477, Methyl ({2-[2-((1R)-1-[[(4-chlorophenyl)sulfonyl]-2,5-difluoroanilino}ethyl)-5-fluorophenyl]ethyl}sulfanyl)acetate]

Compound: CN(CCCOc1ccccc1CN(c1cc(F)ccc1F)S(=O)(=O)c1ccc(Cl)cc1)C(=O)c1cc([N+](=O)[O-])cc([N+](=O)[O-])c1 [Example 958, N-{3-[2-({[(4-chlorophenyl)sulfonyl]-2,5-difluoroanilino}methyl)phenoxy]propyl}-N-methyl-3,5-dinitrobenzamide]
IC50 [4]: > 500 nM
